# Source: patent US10221179B2, “Substituted pyrazoloquinazolinones and pyrroloquinazolinones as allosteric modulators of group II metabotropic glutamate receptors” (DOMAIN THERAPEUTICS, priority 2014, dated 2019)
# What was measured:
# human mGluR2 (hmGluR2) = target: T1, human mGluR2 (hmGluR2) (Homo sapiens, UniProt Q14416); experiment: Ca++ functional assay, human mGluR2 transiently over-expressed in HEK-293 cells (agonist and negative allosteric modulator modes); assay type: cell-based; settings: glutamate at EC80, intracellular calcium (Fluo4AM), read-out: hmGluR2 negative allosteric modulator activity IC50
# T1 construct: expressed in transfected cells; host or cells: HEK-293 cells, transient co-transfection by electroporation
# Method: Example 127: Human mGluR2 and mGluR3 Evaluation Using Ca^++ Functional Assay
# Examples of the present invention were tested successively for their agonist and negative allosteric modulator activities on human mGluR2 (hmGluR2) and mGluR3 (hmGluR3) transiently over-expressed in HEK-293 cells.
# Cell Culture and Transfection
# HEK-293 cells are maintained in Modified Eagle's Medium supplemented with 10% Foetal Calf Serum, 1% Penicillin/Streptomycin and 1% non-essential amino acids at 37° C./5% CO2.
# Cells are co-transfected by electroporation with four DNA plasmids encoding hmGluR2 or hmGluR3, a chimeric G protein allowing redirection of the activation signal to intracellular calcium pathway (Brabet I et al., Neuropharmacology 37(8), 1043-51, 1998), and two glutamate transporters minimizing receptor desensitization by endogenous glutamate. After transfection, cells are cultured for 24 h at 37° C./5% CO2.
# Calcium Assay IC50 Determination
# Receptor activity is detected by changes in intracellular calcium measured using the fluorescent Ca^2+ sensitive dye, Fluo4AM (Molecular Probes).
# On the day of the assay, culture medium is aspirated and replaced during 3 hours by medium without serum supplemented with 1% Glutamax, 1% Penicillin/Streptomycin and 1% non-essential amino acids. Then, cells are washed with freshly prepared buffer B (HBSS 1×(PAA), Hepes 20 mM, MgSO4-7H2O 1 mM, Na2CO3 3.3 mM, CaCl2-2H2O 1.3 mM, 0.1% BSA, Probenecid 2.5 mM) and loaded at 37° C. in 5% CO2 for 1.5 hours with buffer B containing 1 μM Fluo4AM, 0.1 mg/mL Pluronic Acid, 7 μg/mL Glutamate Pyruvate Transaminase and 2 mM sodium pyruvate. Afterwards cells are washed twice with buffer B. Then cells are detached using StemPro Accutase (Fischer Scientific), resuspended in buffer B and seeded in 384 well plate at a density of 30,000 cells per well. Addition of compounds and intracellular Ca^2+ measurements (excitation 485 nm, emission 525 nm) are performed by the fluorescence microplate reader FLIPRTetra (Molecular Devices).
# Agonist and negative allosteric modulator activities of compounds are consecutively evaluated on the same cell plate. […] Then, cells are stimulated by an EC80 glutamate concentration and fluorescence is recorded for additional 3 minutes. EC80 glutamate concentration is the concentration giving 80% of the maximal glutamate response. Agonist or negative allosteric modulator activity(ies) are evaluated in comparison to basal signals evoked by buffer B or EC80 glutamate alone, respectively.
# For IC50 determination, a dose-response test is performed using 20 concentrations (ranging over 6 logs) of each compound. Dose-response curves are fitted using the sigmoidal dose-response (variable slope) analysis in GraphPad Prism program (Graph Pad Inc) and IC50 of negative allosteric modulator activity is calculated. Dose-response experiments are performed in duplicate, two times independently.
# T1 sequence (Q14416 19-872): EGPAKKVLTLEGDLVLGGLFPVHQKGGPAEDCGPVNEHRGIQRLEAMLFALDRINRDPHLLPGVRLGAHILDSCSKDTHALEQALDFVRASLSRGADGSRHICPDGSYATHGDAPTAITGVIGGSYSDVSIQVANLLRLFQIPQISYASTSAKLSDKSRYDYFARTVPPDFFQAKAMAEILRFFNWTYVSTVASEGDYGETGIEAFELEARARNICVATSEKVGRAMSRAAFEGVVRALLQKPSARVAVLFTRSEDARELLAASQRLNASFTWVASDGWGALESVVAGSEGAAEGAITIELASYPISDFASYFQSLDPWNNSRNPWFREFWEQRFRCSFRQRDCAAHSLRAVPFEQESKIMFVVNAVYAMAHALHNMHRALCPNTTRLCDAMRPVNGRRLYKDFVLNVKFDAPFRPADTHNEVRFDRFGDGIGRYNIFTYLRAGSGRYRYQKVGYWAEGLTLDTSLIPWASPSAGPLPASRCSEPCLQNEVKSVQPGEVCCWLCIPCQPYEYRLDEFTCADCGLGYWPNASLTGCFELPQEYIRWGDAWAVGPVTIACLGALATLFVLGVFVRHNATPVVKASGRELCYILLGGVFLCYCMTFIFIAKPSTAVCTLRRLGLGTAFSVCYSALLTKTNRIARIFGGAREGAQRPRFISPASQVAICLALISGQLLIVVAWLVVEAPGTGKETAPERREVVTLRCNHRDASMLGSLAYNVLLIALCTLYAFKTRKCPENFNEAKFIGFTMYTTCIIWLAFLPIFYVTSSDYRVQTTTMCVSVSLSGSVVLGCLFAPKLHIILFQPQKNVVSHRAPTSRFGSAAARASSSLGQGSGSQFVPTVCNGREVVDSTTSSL
SMILES,IC50 (human mGluR2 (hmGluR2)),melting point
"Cn1c(=O)c2ccccc2n2nc(-c3ccnc(OCC(C)(F)F)c3)cc12 [Example 23, 2-[2-(2,2-Difluoro-propoxy)-pyridin-4-yl]-4-methyl-4H-pyrazolo[1,5-a]quinazolin-5-one]",< 1 µM,189 to 191 °C
"CNC(=O)c1ccc2c(=O)n(C)c3cc(-c4ccnc(C(F)(F)F)c4)nn3c2c1 [Example 78, 4-Methyl-5-oxo-2-(2-trifluoromethyl-pyridin-4-yl)-4,5-dihydro-pyrazolo[1,5-a]quinazoline-8-carboxylic Acid Methylamide]",< 1 µM,> 250 °C
"Cn1c(=O)c2cc(F)c(F)cc2n2nc(-c3ccnc(C(F)(F)F)c3)cc12 [Example 88, 7,8-Difluoro-4-methyl-2-(2-trifluoromethyl-pyridin-4-yl)-4H-pyrazolo[1,5-a]quinazolin-5-one]",< 1 µM,> 206 °C
"CN(C)C(=O)c1ccc2c(=O)n(C)c3cc(-c4ccnc(C(F)(F)F)c4)nn3c2c1 [Example 79, 4-Methyl-5-oxo-2-(2-trifluoromethyl-pyridin-4-yl)-4,5-dihydro-pyrazolo[1,5-a]quinazoline-8-carboxylic Acid Dimethylamide]",< 1 µM,
Cc1ccc2c(c1)c(=O)n(C)c1cc(-c3ccnc(C(F)(F)F)c3)nn21 [Example 34],< 1 µM,215 to 218 °C
"CN(C)c1ccc2c(c1)c(=O)n(C)c1cc(-c3ccnc(C(F)(F)F)c3)nn21 [Example 44, 7-Dimethylamino-4-methyl-2-(2-trifluoromethyl-pyridin-4-yl)-4H-pyrazolo[1,5-a]quinazolin-5-one]",< 1 µM,> 250 °C
"COc1cc2c(=O)n(C)c3cc(-c4ccnc(C(F)(F)F)c4)nn3c2cc1OC [Example 87, 7,8-Dimethoxy-4-methyl-2-(2-trifluoromethyl-pyridin-4-yl)-4H-pyrazolo[1,5-a]quinazolin-5-one]",< 1 µM,> 250 °C
"Cn1c(=O)c2c(F)cccc2n2nc(-c3ccnc(C(F)(F)F)c3)cc12 [Example 85, 6-Fluoro-4-methyl-2-(2-trifluoromethyl-pyridin-4-yl)-4H-pyrazolo[1,5-a]quinazolin-5-one]",< 1 µM,> 250 °C
"CC1CN(c2ccc3c(=O)n(C)c4cc(-c5ccnc(C(F)(F)F)c5)nn4c3c2)CC(C)O1 (stereo not drawn) [Example 125, 8-(2,6-Dimethyl-morpholin-4-yl)-4-methyl-2-(2-trifluoromethyl-pyridin-4-yl)-4H-pyrazolo[1,5-a]quinazolin-5-one]",< 1 µM,> 250 °C
"CCOc1ccc2c(c1)c(=O)n(C)c1cc(-c3ccnc(C(F)(F)F)c3)nn21 [Example 49, 7-Ethoxy-4-methyl-2-(2-trifluoromethyl-pyridin-4-yl)-4H-pyrazolo[1,5-a]quinazolin-5-one]",< 1 µM,152 to 158 °C
"Cn1c(=O)c2cc(Cl)ccc2n2nc(-c3ccnc(OCC(F)(F)F)c3)cc12 [Example 98, 7-Chloro-4-methyl-2-[2-(2,2,2-trifluoro-ethoxy)-pyridin-4-yl]-4H-pyrazolo[1,5-a]quinazolin-5-one]",< 1 µM,
"COc1ccc2c(c1)c(=O)n(C)c1cc(-c3ccnc(Cl)c3)nn21 [Example 99, 2-(2-Chloro-pyridin-4-yl)-7-methoxy-4-methyl-4H-pyrazolo[1,5-a]quinazolin-5-one]",< 1 µM,
"Cc1cc(-c2cc3n(C)c(=O)c4ccccc4n3n2)cc(C2CC2)n1 [Example 106, 2-(2-Cyclopropyl-6-methyl-pyridin-4-yl)-4-methyl-4H-pyrazolo[1,5-a]quinazolin-5-one]",< 1 µM,
"Cn1c(=O)c2ccc(F)cc2n2nc(-c3ccnc(Cl)c3)cc12 [Example 117, 2-(2-Chloro-pyridin-4-yl)-8-fluoro-4-methyl-4H-pyrazolo[1,5-a]quinazolin-5-one]",< 1 µM,
Cn1c(=O)c2cc(Cl)ccc2n2nc(-c3ccnc(C4CC4)c3)cc12 [Example 96],< 1 µM,
Cn1c(=O)c2cc(Br)ccc2n2nc(-c3ccnc(C(F)(F)F)c3)cc12 [Example 39],< 1 µM,
"Cc1cc(-c2cc3n(C)c(=O)c4ccccc4n3n2)ccn1 [Example 2, 4-methyl 2-(2-methyl-pyridin-4-yl)-4H-pyrazolo[1,5-a]quinazolin-5-one]",< 1 µM,

# Other lines, results leading:
IC50 (human mGluR2 (hmGluR2)),melting point,SMILES
< 1 µM,> 250 °C,"Cn1c(=O)c2ccc(N3CCC(O)CC3)cc2n2nc(-c3ccnc(C(F)F)c3)cc12 [Example 115, 2-(2-Difluoromethyl-pyridin-4-yl)-8-(4-hydroxy-piperidin-1-yl)-4-methyl-4H-pyrazolo[1,5-a]quinazolin-5-one]"
< 1 µM,> 250 °C,"Cn1c(=O)c2cc(F)c(NCCC#N)cc2n2nc(-c3ccnc(C(F)(F)F)c3)cc12 [Example 121, 3-[7-Fluoro-4-methyl-5-oxo-2-(2-trifluoromethyl-pyridin-4-yl)-4,5-dihydro-pyrazolo[1,5-a]quinazolin-8-ylamino]-propionitrile]"
< 1 µM,214 to 220 °C,"CCn1c(=O)c2ccccc2n2nc(-c3ccnc(C(F)(F)F)c3)cc12 [Example 28, 4-Ethyl-2-(2-trifluoromethyl-pyridin-4-yl)-4H-pyrazolo[1,5-a]quinazolin-5-one]"
< 1 µM,201 to 205 °C,COc1ccc2c(c1)c(=O)n(C)c1cc(-c3ccnc(C(F)(F)F)c3)nn21 [Example 36]
< 1 µM,> 250 °C,"Cn1c(=O)c2ccc(C(=O)N3CCOCC3)cc2n2nc(-c3ccnc(C(F)(F)F)c3)cc12 [Example 81, 4-Methyl-8-(morpholine-4-carbonyl)-2-(2-trifluoromethyl-pyridin-4-yl)-4H-pyrazolo[1,5-a]quinazolin-5-one]"
< 1 µM,> 250 °C,"Cn1c(=O)c2cc(F)c(OC3COC3)cc2n2nc(-c3ccnc(C(F)(F)F)c3)cc12 [Example 120, 7-Fluoro-4-methyl-8-(oxetan-3-yloxy)-2-(2-trifluoromethyl-pyridin-4-yl)-4H-pyrazolo[1,5-a]quinazolin-5-one]"
< 1 µM,240 to 245 °C,"CCN(CC)C(=O)c1ccc2c(=O)n(C)c3cc(-c4ccnc(C(F)(F)F)c4)nn3c2c1 [Example 80, 4-Methyl-5-oxo-2-(2-trifluoromethyl-pyridin-4-yl)-4,5-dihydro-pyrazolo[1,5-a]quinazoline-8-carboxylic Acid Diethylamide]"
< 1 µM,,"CNc1cc2c(=O)n(C)c3cc(-c4ccnc(C(F)(F)F)c4)nn3c2cc1OC [Example 94, 8-Methoxy-4-methyl-7-methylamino-2-(2-trifluoromethyl-pyridin-4-yl)-4H-pyrazolo[1,5-a]quinazolin-5-one]"
< 1 µM,209 to 213 °C,"Cn1c(=O)c2ccccc2n2nc(-c3ccnc(OCC(F)F)c3)cc12 [Example 22, 4-Methyl-2-[2-(2,2-difluoro-ethoxy)-pyridin-4-yl]-4H-pyrazolo[1,5-a]quinazolin-5-one]"
< 1 µM,185 to 189 °C,"Cn1c(=O)c2ccccc2n2nc(-c3ccnc(OCC4CC4)c3)cc12 [Example 19, 2-(2-Cyclopropylmethoxy-pyridin-4-yl)-4-methyl-4H-pyrazolo[1,5-a]quinazolin-5-one]"
< 1 µM,,"Cn1c(=O)c2ccc(Cl)cc2n2nc(-c3ccnc(C(F)(F)F)c3)cc12 [Example 56, 8-Chloro-4-methyl-2-(2-trifluoromethyl-pyridin-4-yl)-4H-pyrazolo[1,5-a]quinazolin-5-one]"
< 1 µM,,"Cn1c(=O)c2cc(Cl)ccc2n2nc(-c3ccnc(Cl)c3)cc12 [Example 95, 7-Chloro-2-(2-chloro-pyridin-4-yl)-4-methyl-4H-pyrazolo[1,5-a]quinazolin-5-one]"
< 1 µM,,"Cn1c(=O)c2ccc(Br)cc2n2nc(-c3ccnc(C(F)(F)F)c3)cc12 [Example 58, 8-Bromo-4-methyl-2-(2-trifluoromethyl-pyridin-4-yl)-4H-pyrazolo[1,5-a]quinazolin-5-one]"
